From patent publication US12590961B2, “Quantum dot conjugated virus spike protein for cell-based bio-sensing systems and drug screening” (priority 2020, dated 2026)

System: ACE2-GFP HEK293T cells
Format: cell-based, human

## O=C(N/N=C/c1cc(O)c(O)cc1O)c1cc2ccccc2cc1O [Dyngo-4a]
  blocking of endo(RBD-ACE2), QD608-RBD induced translocation of ACE2-GFP: robustly blocked
  effect on ACE2-GFP localization, compound alone: did not affect the ACE2-GFP localization
